Assay results as given in patent publication US10662194B2, “Substituted 6-anilino-9-heterocyclylpurine derivatives for inhibition of plant stress” (UNIVERZITA PALACKEHO V OLOMOUCI, priority 2014, dated 2020).
Marks after values point to notes of the source that are not given here.

Experiments:
CRE1/AHK4 = biological target: T1, CRE1/AHK4 (Arabidopsis thaliana, UniProt Q9C5U0); experiment: Escherichia coli cytokinin receptor activation assay (CRE1/AHK4); assay type: cell-based; conditions: 10^−7 M-5×10^−5 M, compared to trans-zeatin, FIG. 1
T1 construct: expressed in transfected cells; host or cells: Escherichia coli strain KMI001
T1 sequence (Q9C5U0 whole entry): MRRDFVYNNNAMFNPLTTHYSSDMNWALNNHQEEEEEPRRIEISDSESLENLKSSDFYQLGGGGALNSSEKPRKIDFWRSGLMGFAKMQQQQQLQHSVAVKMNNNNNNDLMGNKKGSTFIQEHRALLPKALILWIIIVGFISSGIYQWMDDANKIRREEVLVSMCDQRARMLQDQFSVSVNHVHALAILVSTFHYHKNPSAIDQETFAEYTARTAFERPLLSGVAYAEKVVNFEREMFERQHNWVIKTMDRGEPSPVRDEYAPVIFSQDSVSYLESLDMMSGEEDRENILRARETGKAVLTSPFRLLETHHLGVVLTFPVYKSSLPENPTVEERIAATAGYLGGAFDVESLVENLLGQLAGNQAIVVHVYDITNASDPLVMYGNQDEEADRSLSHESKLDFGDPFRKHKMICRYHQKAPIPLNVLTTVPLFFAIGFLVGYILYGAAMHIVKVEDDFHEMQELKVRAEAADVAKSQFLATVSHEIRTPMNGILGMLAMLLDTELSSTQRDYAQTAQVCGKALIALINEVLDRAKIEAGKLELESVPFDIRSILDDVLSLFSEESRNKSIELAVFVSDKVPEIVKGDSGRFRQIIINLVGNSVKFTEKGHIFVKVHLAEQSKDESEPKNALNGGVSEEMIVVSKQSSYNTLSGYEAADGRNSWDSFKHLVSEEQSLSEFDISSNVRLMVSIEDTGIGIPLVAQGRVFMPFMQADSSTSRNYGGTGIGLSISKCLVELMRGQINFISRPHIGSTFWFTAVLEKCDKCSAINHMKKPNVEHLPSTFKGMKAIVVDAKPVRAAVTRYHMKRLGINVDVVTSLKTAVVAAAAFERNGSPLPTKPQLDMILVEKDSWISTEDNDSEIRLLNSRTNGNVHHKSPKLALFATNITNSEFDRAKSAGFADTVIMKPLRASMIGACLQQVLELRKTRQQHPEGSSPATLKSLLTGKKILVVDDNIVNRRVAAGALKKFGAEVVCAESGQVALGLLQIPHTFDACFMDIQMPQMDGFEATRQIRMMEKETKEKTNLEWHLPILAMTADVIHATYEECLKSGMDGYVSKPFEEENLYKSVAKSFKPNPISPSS
Protocol: Escherichia coli strains KMI001 harbouring the plasmid pIN-III-AHK4 or pSTV28-AHK3 were grown overnight at 25° C. in M9 media enriched with 0.1% casamino acids to OD600˜1. The preculture was diluted 1:600 in 1 ml M9 medium containing 0.1% casamino acids and 1 μL stock solution of either the tested compound (10^−7 M-5×10^−5 M) or solvent control (DMSO, ethanol, methanol) were added. The cultures were further grown at 25° C. in microtiter plate, 200 μL per well. […] The cultures were centrifuged and 50 μL aliquots of the supernatant were transferred to microtiter plate containing 2 μL 50 mM 4-methyl umbelliferyl galactoside which was subsequently incubated for 1 h at 37° C. The reaction was stopped by adding 100 μL 0.2 M Na2CO3. Fluorescence was measured using a Fluoroscan Ascent (Labsystems, Finland) at the excitation and emission wavelengths of 365 and 460 nm, respectively. The OD600 of remaining culture was determined and β-galactosidase activity was calculated as nmol 4-methylumbelliferone×OD600^−1×h^−1.

[1] = test system: shoot rosettes of Arabidopsis; experiment: Leaf chlorophyll degradation in dark-incubated shoot rosettes; assay type: in vivo; conditions: 6 days in the dark
Protocol: The effect of the compound 12 on retention of chlorophyll in the dark treated plants was tested using app. 18 DAG (days after germination) old Arabidopsis plants grown in vitro on standard MS medium (16 h/8 h light/dark regime, light intensity 120 μmol·m^−l·s^−1). Shoots of the plants were excised from the roots and the whole rossetes were placed into 6-well plate (one rosete per well) into water (3 mL per well) containing 0.01% DMSO (solvent control), or compound 12, cytokinin BAP and CKX inhibitor INCYDE (2-chloro-6-(3-methoxyanilino)purine), in concentrations of 0.01, 0.1, 1 and 10 μM. The plates were then incubated in the dark for 6 days at 25° C. After incubation chlorophyll from each rosette was extracted into 1.8 mL of 80% ethanol, during 30 min of heating to 80° C. The chlorophyll content in extracts was measured spectrofotometricaly at 665 nm. […] In this concentration the rosettes kept around 95% of chlorophyll.

[2] = test system: winter rapeseed variety Benefit; experiment: Seed coating, emergence and freezing tolerance of winter rapeseed (field experiment); assay type: in vivo; conditions: 50 μM seed coating
Protocol: To evaluate the effect of seed coating with compound 12 on yield forming traits of winter rapeseed field plot experiment was performed in season 2010/2011 on locality Opava, Czech Republic. Seeds of winter rapeseed variety Benefit (Selgen) were coated with 50 μM concentration of compound 12 mixed into the seed coating treatment Cruiser OSR (Syngenta; 15 L of solution per 1000 kg of seeds), seeds coated with only Cruiser OSR were used for control variant. The seeds were dried and then sown in the sowing rate 700.000 seeds per hectare in 4 replications per each variant in randomized positions (each replication was 10 square meter plot). In the experiment plant emergence, freezing tolerance and final seed yield were scored. The frost tolerance was estimated by method described in (Janáček, J., Prášil, I.: Quantification of plant frost injury by nonlinear fitting of an s-shaped function. Cryo-Letters vol. 12, 1991, no. 7, 47-52).

COc1cccc(Nc2nc(Cl)nc3c2ncn3C2CCCCO2)c1 (stereo not shown) [compound 12, 2-chloro-6-(3-methoxyanilino)-9-(tetrahydropyran-2-yl)purine]
ability to activate cytokinin receptor CRE1/AHK4 (CRE1/AHK4): very low ability to activate
chlorophyll kept in rosettes ([1]; 1 μM): around 95%
retention of chlorophyll, activity versus BAP and INCYDE ([1]; 0.01-10 μM, FIG. 7): highest activity in 1 μM concentration
Estimated frost resistence (atrifical frost test) - Letal Temperature LT50 [2]: −12.3 *
Number of emerged plants per sq meter - autumn (11th October, 2010) [2]: 60.0 per sq meter
Plant height (cm) - autumn (11th October, 2010) [2]: 6.6 cm
Seed yield (% of control) [2]: 103.1 % of control
increase of artificially estimated frost tolerance [2]: ~5%
increase of the final seed yield [2]: 3.1%
more plants emerged in the same time compared to control [2]: ~20%
Leafs weight - autumn (22th October) ([2]; 15 plants): 11.69**
Root lenght (cm) - autumn (22th October) ([2]; 15 plants): 14.63 cm
Seed yield (t/ha) ([2]; mean from 4 plots): 5.98 t/ha
